Assay results published in ChEMBL document CHEMBL1130906, “Actinomycin D, C2 and VII, inhibitors of Grb2-SHC interaction produced by Streptomyces” (Bioorg Med Chem Lett, 1998).
Numbered stars: 1 amine (or outer) side, 2 acyl side, 3 side chain; on linkers, the order of the positions; unused ones are H or OH. Bridge positions count the residues as written; N and C are the ends. Square brackets hold non-standard residues; d marks the D form. Peptide text beside a SMILES is read from it. I, II: the chains in the order shown. Actinocin(1to9) = Cc1c2oc3c(C)ccc(C(=O)[*:2])c3nc-2c(C(=O)[*:1])c(N)c1=O; Actinocin(9to1) = Cc1c2oc3c(C)ccc(C(=O)[*:1])c3nc-2c(C(=O)[*:2])c(N)c1=O; NMeV = CN[CH](C(=O)O)C(C)C; Sar = CNCC(=O)O

The compounds below were run against Growth factor receptor-bound protein 2 (Homo sapiens, UniProt P62993) (assay: Inhibition of GST-Grb2 Tyrosine kinase SH2 domain binding to [3H]labeled-phosphopeptide (Ac-SpYVNK-NH-C(O)-CH2CH2H3)).
Chain of Growth factor receptor-bound protein 2 (P62993 whole entry, the tested form may be a part): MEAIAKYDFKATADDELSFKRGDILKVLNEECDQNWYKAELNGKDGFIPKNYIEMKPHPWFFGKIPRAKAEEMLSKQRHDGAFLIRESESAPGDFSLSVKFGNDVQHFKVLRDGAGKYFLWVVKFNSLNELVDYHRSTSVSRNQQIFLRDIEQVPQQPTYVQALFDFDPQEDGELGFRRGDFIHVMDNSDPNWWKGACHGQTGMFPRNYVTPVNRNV
`CCC(C)C1NC(=O)C(NC(=O)c2c3nc4c(C(=O)NC5C(=O)NC(C(C)CC)C(=O)N6CCCC6C(=O)N(C)CC(=O)N(C)C(C(C)C)C(=O)OC5C)ccc(C)c4oc-3c(C)c(=O)c2N)C(C)OC(=O)C(C(C)C)N(C)C(=O)CN(C)C(=O)C2CCCN2C1=O` (stereo not drawn) (I: TIP[Sar][NMeV] / II: TIP[Sar][NMeV]; ester I:1-I:C, II:1-II:C; linker I:N-II:N via Actinocin(1to9); configuration not given here) showed an IC50 of 7.6 µM.
Compound `CC[C@H](C)[C@@H]1NC(=O)[C@@H](NC(=O)c2ccc(C)c3oc4c(C)c(=O)c(N)c(C(=O)N[C@@H]5C(=O)N[C@@H](C(C)C)C(=O)N6CCC[C@H]6C(=O)N(C)CC(=O)N(C)[C@@H](C(C)C)C(=O)O[C@@H]5C)c-4nc23)[C@@H](C)OC(=O)[C@H](C(C)C)N(C)C(=O)CN(C)C(=O)[C@@H]2CCCN2C1=O` (I: TIP[Sar][NMeV] / II: TVP[Sar][NMeV]; ester I:1-I:C, II:1-II:C; linker I:N-II:N via Actinocin(9to1)) has an IC50 of 5.9 µM.
For `Cc1c2oc3c(C)ccc(C(=O)N[C@@H]4C(=O)N[C@H](C(C)C)C(=O)N5CCC[C@H]5C(=O)N(C)CC(=O)N(C)[C@@H](C(C)C)C(=O)O[C@@H]4C)c3nc-2c(C(=O)N[C@@H]2C(=O)N[C@H](C(C)C)C(=O)N3CCC[C@H]3C(=O)N(C)CC(=O)N(C)[C@@H](C(C)C)C(=O)O[C@@H]2C)c(N)c1=O` [DACTINOMYCIN] (I: T[dV]P[Sar][NMeV] / II: T[dV]P[Sar][NMeV]; ester I:1-I:C, II:1-II:C; linker I:N-II:N via Actinocin(9to1)), the IC50 was 5 µM.
